US6355799B1, “Substituted benzene compounds, process for their preparation, and herbicidal and defoliant compositions containing them” (ISK Americas Incorporated, priority 1997, dated 2002)

Experiments:
Format in all cases: in vivo
[1] = system: large crabgrass (Digitaria sanguinalis, DIGSA); test: Pre-emerge test, greenhouse herbicide activity screening; conditions: phytotoxicity rating 0-100, 14 days after application
Method in brief: (§1)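 Plants grown in 10 cm pots of sandy loam mix received acetone-dissolved compounds through a moving flat-fan nozzle. Doses ranged from 15 to 1000 g ai/ha. Pre-emerge pots were seeded one day earlier, post-emerge pots 8–21 days earlier. Fourteen days on, each pot was graded 0–100 for damage.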

[2] = system: sicklepod (Cassia obtusifolia, CASOB); test: as above; conditions: phytotoxicity rating 0-100, 14 days after application
Method in brief: as §1

[3] = system: velvetleaf (Abutilon theophrasti, ABUTH); test: as above; conditions: phytotoxicity rating 0-100, 14 days after application
Method in brief: as §1

[4] = system: green foxtail (Setaria viridis, SETVI); test: as above; conditions: phytotoxicity rating 0-100, 14 days after application
Method in brief: as §1

[5] = system: lambsquarters (Chenopodium album, CHEAL); test: as above; conditions: phytotoxicity rating 0-100, 14 days after application
Method in brief: as §1

[6] = system: johnsongrass (Sorghum halepense, SORHA); test: as above; conditions: phytotoxicity rating 0-100, 14 days after application
Method in brief: as §1

[7] = system: ivyleaf morningglory (Ipomoea hederacea, IPOHE); test: as above; conditions: phytotoxicity rating 0-100, 14 days after application
Method in brief: as §1

[8] = system: barnyardgrass (Echinochloa crus-galli, ECHCG); test: as above; conditions: phytotoxicity rating 0-100, 14 days after application
Method in brief: as §1

[9] = system: common ragweed (Ambrosia artemisizfolia L., AMBEL); test: as above; conditions: phytotoxicity rating 0-100, 14 days after application
Method in brief: as §1

[10] = system: redroot pigweed (Amaranthus retroflexus, AMARE); test: as above; conditions: phytotoxicity rating 0-100, 14 days after application
Method in brief: (§2)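 Sandy loam pots; pre-emerge: sown 1 d pre-spray, surface-watered after, then bottom-watered. Post-emerge: sown 8–21 d before, 2–3 leaf stage, + 0.25% v/v NIS, bottom-watered. Acetone, 187 l/ha track spray, 15–1000 g ai/ha. 0–100 injury score, day 14.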

[11] = system: large crabgrass (Digitaria sanguinalis, DIGSA); test: Post-emerge test, greenhouse herbicide activity screening; conditions: post-emerge, 14 days after application, rating scale 0-100
Method in brief: (§3)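 Herbicidal damage is scored 0 (none) to 100 (complete plant death) two weeks after a simulated field spray. Rates span 15–1000 g ai/ha, delivered in acetone at 187 l/ha. For post-emergence treatments, plants have 2–3 leaves and the spray carries 0.25% v/v non-ionic surfactant.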

[12] = system: sicklepod (Cassia obtusifolia, CASOB); test: as above; conditions: post-emerge, 63 g ai/ha, 14 days after application, rating scale 0-100
Method in brief: as §3

[13] = system: velvetleaf (Abutilon theophrasti, ABUTH); test: as above; conditions: post-emerge, 14 days after application, rating scale 0-100
Method in brief: as §3

[14] = system: green foxtail (Setaria viridis, SETVI); test: as above; conditions: post-emerge, 14 days after application, rating scale 0-100
Method in brief: as §3

[15] = system: lambsquarters (Chenopodium album, CHEAL); test: as above; conditions: post-emerge, 14 days after application, rating scale 0-100
Method in brief: as §3

[16] = system: redroot pigweed (Amaranthus retroflexus, AMARE); test: as above; conditions: post-emerge, 14 days after application
Method in brief: as §3

[17] = system: johnsongrass (Sorghum halepense, SORHA); test: as above; conditions: post-emerge, 14 days after application, rating scale 0-100
Method in brief: as §3

[18] = system: ivyleaf morningglory (Ipomoea hederacea, IPOHE); test: as above; conditions: post-emerge, 14 days after application, rating scale 0-100
Method in brief: as §3

[19] = system: barnyardgrass (Echinochloa crus-galli, ECHCG); test: as above; conditions: post-emerge, 14 days after application, rating scale 0-100
Method in brief: as §3

[20] = system: common ragweed (Ambrosia artemisizfolia L., AMBEL); test: as above; conditions: post-emerge, 14 days after application, rating scale 0-100
Method in brief: as §3

[21] = system: field corn (Zea mays L., var. Dekalb 535, CORN); test: Post-emerge test, crop safety; conditions: post-emerge, 14 days after application, rating scale 0-100
Method in brief: (§4)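 Each test used a mechanized track sprayer delivering 187 l/ha of acetone solution at 15–1000 g ai/ha. Post-emerge foliage at 2–3 leaves was treated with added 0.25% v/v non-ionic surfactant and bottom-watered only. Injury was assessed on day 14, where 100 means total kill.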

[22] = system: upland rice (Oryza sp., var. Tebonnet, RICE); test: Post-emerge test, crop safety; conditions: post-emerge, 14 days after application, rating scale 0-100
Method in brief: as §4

[23] = system: field corn (Zea mays L., var. Dekalb 535, CORN); test: Pre-emerge test, crop safety; conditions: crop damage rating 0-100, 14 days after application
Method in brief: as §2

[24] = system: upland rice (Oryza sp., var. Tebonnet, RICE); test: Pre-emerge test, crop safety; conditions: crop damage rating 0-100, 14 days after application
Method in brief: as §2

Cn1c(C(F)(F)F)cc(=O)n(-c2ccc(Cl)cc2NC(=O)C2CC2)c1=O [2-204]
Pre-emerge Herbicidal Activity DIGSA ([1]; 63 g ai/ha): 35
Pre-emerge Herbicidal Activity DIGSA ([1]; 250 g ai/ha): 100
Pre-emerge Herbicidal Activity CASOB ([2]; 63 g ai/ha): 60
Pre-emerge Herbicidal Activity CASOB ([2]; 250 g ai/ha): 75
Pre-emerge Herbicidal Activity ABUTH ([3]; 63 g ai/ha): 99
Pre-emerge Herbicidal Activity ABUTH ([3]; 250 g ai/ha): 100
Pre-emerge Herbicidal Activity SETVI ([4]; 63 g ai/ha): 95
Pre-emerge Herbicidal Activity SETVI ([4]; 250 g ai/ha): 99
Pre-emerge Herbicidal Activity CHEAL ([5]; 63 g ai/ha): 70
Pre-emerge Herbicidal Activity CHEAL ([5]; 250 g ai/ha): 100
Pre-emerge Herbicidal Activity SORHA ([6]; 63 g ai/ha): 40
Pre-emerge Herbicidal Activity SORHA ([6]; 250 g ai/ha): 80
Pre-emerge Herbicidal Activity IPOHE ([7]; 63 g ai/ha): 50
Pre-emerge Herbicidal Activity IPOHE ([7]; 250 g ai/ha): 100
Pre-emerge Herbicidal Activity ECHCG ([8]; 63 g ai/ha): 20
Pre-emerge Herbicidal Activity ECHCG ([8]; 250 g ai/ha): 70
Pre-emerge Herbicidal Activity AMBEL ([9]; 63 g ai/ha): 50
Pre-emerge Herbicidal Activity AMBEL ([9]; 250 g ai/ha): 85
Pre-emerge Herbicidal Activity AMARE ([10]; 63 g ai/ha): 100
Pre-emerge Herbicidal Activity AMARE ([10]; 250 g ai/ha): 100
phytotoxicity rating DIGSA ([11]; 63 g ai/ha): 0
phytotoxicity rating DIGSA ([11]; 250 g ai/ha): 10
phytotoxicity rating CASOB [12]: 10
phytotoxicity rating ABUTH ([13]; 63 g ai/ha): 40
phytotoxicity rating ABUTH ([13]; 250 g ai/ha): 80
phytotoxicity rating SETVI ([14]; 63 g ai/ha): 0
phytotoxicity rating SETVI ([14]; 250 g ai/ha): 20
phytotoxicity rating CHEAL ([15]; 63 g ai/ha): 20
phytotoxicity rating CHEAL ([15]; 250 g ai/ha): 95
phytotoxicity rating AMARE ([16]; 63 g ai/ha, rating scale 0-100 (0 no damage, 100 complete death)): 50
phytotoxicity rating AMARE ([16]; 250 g ai/ha, rating scale 0-100): 70
phytotoxicity rating SORHA ([17]; 63 g ai/ha): 0
phytotoxicity rating SORHA ([17]; 250 g ai/ha): 0
phytotoxicity rating IPOHE ([18]; 63 g ai/ha): 30
phytotoxicity rating IPOHE ([18]; 250 g ai/ha): 60
phytotoxicity rating ECHCG ([19]; 63 g ai/ha): 0
phytotoxicity rating ECHCG ([19]; 250 g ai/ha): 0
phytotoxicity rating AMBEL ([20]; 63 g ai/ha): 10
phytotoxicity rating AMBEL ([20]; 250 g ai/ha): 70
phytotoxicity rating CORN (crop damage) ([21]; 63 g ai/ha): 5
phytotoxicity rating CORN (crop damage) ([21]; 250 g ai/ha): 10
phytotoxicity rating RICE (crop damage) ([22]; 63 g ai/ha): 0
phytotoxicity rating RICE (crop damage) ([22]; 250 g ai/ha): 30
Pre-emerge Herbicidal Activity CORN ([23]; 63 g ai/ha): 50
Pre-emerge Herbicidal Activity CORN ([23]; 250 g ai/ha): 70
Pre-emerge Herbicidal Activity RICE ([24]; 63 g ai/ha): 0
Pre-emerge Herbicidal Activity RICE ([24]; 250 g ai/ha): 30
